# Measured values published in PMC11801377, “A uniquely efficacious type of CFTR corrector with complementary mode of action” (Science Advances, 2024).
# Columns and labels:
# [1] = test system: 10 most frequent CF-causing CFTR folding mutations; experiment: CFTR correction (immunoblotting) in HEK-TREx cells expressing CF-causing CFTR folding mutations; type: cell-based, human; settings: many mutants
# Excerpt: (§1) The human CFTR expressing HEK cell pools with the mutations described below were generated by integrase-mediated homologous recombination of the CFTR sequence into the T-REx HEK293 background (Thermo Fisher Scientific). This expression system allows the tetracycline-inducible expression of genes of interest from one defined insertion site. Parental T-REx-HEK293 cells were cultivated in growth medium: Dulbecco’s modified Eagle’s medium + GlutaMAX-I (#31966, Life Technologies), 10% dialyzed FBS (Gibco, #26400), penicillin (100 U/ml), streptomycin (100 μg/ml), hygromycin B (0.1 mg/ml; Life Technologies), blasticidin (5 μg/ml; Invitrogen, #R210-01), and 0.1 mM nonessential amino acid solution (Invitrogen, #11140-035). Recombinant T-REx-HEK-CFTR cells were generated by lipofectamine transfection (Life Technologies) of plasmids containing mutated versions of CFTR (RefSeq NM_000492) and then cultivated in selection medium [growth medium containing Geneticin (1 mg/ml) (Invitrogen, #10131-027) instead of hygromycin]. The plasmid constructs were synthetized by GENEART (Thermo Fisher Scientific) and designed with the WT CFTR intron 5 to 6 (880 nucleotides) to prevent leaky expression issues during the cloning process in bacteria. […]
# CFTR = test system: CFTR; design: method as in earlier work; settings: ref [27] (GLPG-2737); ref [21], [26], [27] (ELX); cited from earlier work
# R347P CFTR = target: T1, R347P CFTR (Homo sapiens, UniProt P13569, R347P); experiment: CFTR correction (immunoblotting), HEK-TREx, R347P; type: cell-based; settings: 48 hours, IDOR-3 2 μM, IDOR-4 0.4 μM, TEZ 2 μM + ELX 0.4 μM
# T1 construct: expressed in transfected cells; host or cells: T-REx HEK293
# Excerpt: as §1
# L206W CFTR = target: T2, L206W CFTR (Homo sapiens, UniProt P13569, L206W); experiment: CFTR correction (immunoblotting), HEK-TREx, L206W; type: cell-based; settings: 48 hours, IDOR-3 2 μM, IDOR-4 0.4 μM, TEZ 2 μM + ELX 0.4 μM
# T2 construct: expressed in transfected cells; host or cells: T-REx HEK293
# Excerpt: as §1
# N1303K CFTR = target: T3, N1303K CFTR (Homo sapiens, UniProt P13569, N1303K); experiment: CFTR correction (immunoblotting), HEK-TREx, N1303K; type: cell-based; settings: 48 hours, IDOR-3 2 μM, IDOR-4 0.4 μM, TEZ 2 μM + ELX 0.4 μM
# T3 construct: expressed in transfected cells; host or cells: T-REx HEK293
# Excerpt: as §1
# G85E CFTR = target: T4, G85E CFTR (Homo sapiens, UniProt P13569, G85E); experiment: CFTR correction (immunoblotting), HEK-TREx, G85E; type: cell-based; settings: 48 hours, IDOR-3 2 μM, IDOR-4 0.4 μM, TEZ 2 μM + ELX 0.4 μM
# T4 construct: expressed in transfected cells; host or cells: T-REx HEK293
# Excerpt: as §1
# F508del.L15W-CFTR = experiment: Site-directed mutagenesis immunoblotting, HEK-TREx, F508del.L15W-CFTR; type: cell-based, human; settings: 40 h, 2 μM
# Excerpt: as §1
# WT-CFTR = target: T5, WT-CFTR (Homo sapiens, UniProt P13569); experiment: YFP quenching assay in CFBE-WT-CFTR-YFP cells; type: cell-based
# T5 construct: host or cells: CFBE41o-
# S945L CFTR = target: T6, S945L CFTR (Homo sapiens, UniProt P13569, S945L); experiment: CFTR correction (immunoblotting), HEK-TREx, S945L; type: cell-based; settings: 48 hours, IDOR-3 2 μM, IDOR-4 0.4 μM, TEZ 2 μM + ELX 0.4 μM
# T6 construct: expressed in transfected cells; host or cells: T-REx HEK293
# Excerpt: as §1
# M1101K CFTR = target: T7, M1101K CFTR (Homo sapiens, UniProt P13569, M1101K); experiment: CFTR correction (immunoblotting), HEK-TREx, M1101K; type: cell-based; settings: 48 hours, IDOR-3 2 μM, IDOR-4 0.4 μM, TEZ 2 μM + ELX 0.4 μM
# T7 construct: expressed in transfected cells; host or cells: T-REx HEK293
# Excerpt: as §1
# T7 sequence (P13569 whole entry M1101K): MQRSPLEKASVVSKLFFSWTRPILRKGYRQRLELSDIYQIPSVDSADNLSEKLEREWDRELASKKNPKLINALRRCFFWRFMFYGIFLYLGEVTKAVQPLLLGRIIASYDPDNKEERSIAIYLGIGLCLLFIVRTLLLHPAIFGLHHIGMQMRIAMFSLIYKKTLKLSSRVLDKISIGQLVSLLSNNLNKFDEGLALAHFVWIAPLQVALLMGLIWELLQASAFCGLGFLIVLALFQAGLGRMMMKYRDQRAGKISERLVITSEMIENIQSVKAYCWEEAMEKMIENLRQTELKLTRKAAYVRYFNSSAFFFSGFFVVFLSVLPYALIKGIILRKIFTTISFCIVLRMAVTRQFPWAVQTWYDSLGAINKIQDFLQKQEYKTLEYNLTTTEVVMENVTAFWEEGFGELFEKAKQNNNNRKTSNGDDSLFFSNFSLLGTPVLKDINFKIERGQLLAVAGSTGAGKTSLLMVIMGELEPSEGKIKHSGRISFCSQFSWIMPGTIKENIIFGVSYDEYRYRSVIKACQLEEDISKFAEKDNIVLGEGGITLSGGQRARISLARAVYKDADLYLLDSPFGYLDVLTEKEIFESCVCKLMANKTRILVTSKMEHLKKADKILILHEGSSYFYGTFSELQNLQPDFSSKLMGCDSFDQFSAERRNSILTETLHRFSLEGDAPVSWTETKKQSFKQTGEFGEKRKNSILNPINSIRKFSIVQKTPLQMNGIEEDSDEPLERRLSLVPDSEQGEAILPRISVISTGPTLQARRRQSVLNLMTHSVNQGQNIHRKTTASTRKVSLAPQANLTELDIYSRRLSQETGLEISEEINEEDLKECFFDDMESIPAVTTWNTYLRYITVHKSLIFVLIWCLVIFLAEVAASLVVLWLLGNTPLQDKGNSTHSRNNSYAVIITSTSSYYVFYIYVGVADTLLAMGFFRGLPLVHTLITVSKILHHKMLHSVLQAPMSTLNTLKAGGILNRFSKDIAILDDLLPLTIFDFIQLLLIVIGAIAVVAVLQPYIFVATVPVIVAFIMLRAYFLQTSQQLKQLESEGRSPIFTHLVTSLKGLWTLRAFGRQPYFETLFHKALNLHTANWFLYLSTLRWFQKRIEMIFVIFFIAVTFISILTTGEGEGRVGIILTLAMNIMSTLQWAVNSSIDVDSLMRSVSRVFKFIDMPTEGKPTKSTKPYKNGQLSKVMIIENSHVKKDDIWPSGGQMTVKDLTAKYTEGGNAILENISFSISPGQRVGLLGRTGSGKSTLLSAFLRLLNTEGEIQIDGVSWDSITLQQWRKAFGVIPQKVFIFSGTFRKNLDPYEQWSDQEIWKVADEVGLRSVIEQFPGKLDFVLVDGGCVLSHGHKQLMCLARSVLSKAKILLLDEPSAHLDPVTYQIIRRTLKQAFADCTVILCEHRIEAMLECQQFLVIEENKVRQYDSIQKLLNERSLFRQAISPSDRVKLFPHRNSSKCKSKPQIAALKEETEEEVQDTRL
# T6 sequence (P13569 whole entry S945L): as the sequence (P13569 whole entry M1101K) above, with S945L, K1101M counted along it
# T4 sequence (P13569 whole entry G85E): as the sequence (P13569 whole entry M1101K) above, with G85E, K1101M counted along it
# T5 sequence (P13569 whole entry): as the sequence (P13569 whole entry M1101K) above, with K1101M counted along it
# T3 sequence (P13569 whole entry N1303K): as the sequence (P13569 whole entry M1101K) above, with K1101M, N1303K counted along it
# T1 sequence (P13569 whole entry R347P): as the sequence (P13569 whole entry M1101K) above, with R347P, K1101M counted along it
# T2 sequence (P13569 whole entry L206W): as the sequence (P13569 whole entry M1101K) above, with L206W, K1101M counted along it
correction of R347P (R347P CFTR),correction of L206W (L206W CFTR),correction of N1303K (N1303K CFTR),correction of G85E (G85E CFTR),increase in WT-CFTR function (WT-CFTR),correction of S945L (S945L CFTR),correction of M1101K (M1101K CFTR),Structure (SMILES),correction by stand-alone treatment [1],acute effect on CFTR currents (CFTR),correction by macrocycles versus [LUM + BAM] (F508del.L15W-CFTR)
,,,,,,,"Cc1nn(C)cc1S(=O)(=O)NC(=O)c1ccc(-n2ccc(OCC(C)(C)C(F)(F)F)n2)nc1N1C[C@@H](C)CC1(C)C [ELX, elexacaftor]",no/little correction,copotentiating effects,
highly effective,highly effective,only minor activity,highly effective,~ 2 fold,highly effective,highly effective,COc1cc(CCNC(=O)C2CC(=O)N(C)C(CC(C)C)C(=O)N3CCCCC3C(=O)NC(Cc3ccccc3)COc3ccc4ncc(F)cc4c3C(=O)N2)on1 (centres unmarked) [IDOR-3],,,little difference
,,,,,,,"CC(C)(CO)c1cc2cc(NC(=O)C3(c4ccc5c(c4)OC(F)(F)O5)CC3)c(F)cc2n1C[C@@H](O)CO [TEZ, tezacaftor]",no/little correction,,
